Patent US11311576B2, “Methods of use for CAR T cells” (Seattle Children's Hospital, priority 2018, dated 2022)

Tests used:
HOS-FRα tumor = assay: CRS toxicity and sodium fluorescein rescue in HOS-FRα tumor-bearing mice; type: in vivo; settings: intravenous ~95 mg/kg on day 13, plasma 6 hours later, 35 million total CAR-T cells
Procedure: All animal care and use were performed according to NIH guidelines and in compliance with protocols approved by the Purdue University Animal Use and Care Committee. Female 4 to 5-week-old NOD/SCID gamma (NSG™) mice (stock number: 005557) were purchased from The Jackson Laboratory (Bar Harbor, Me.). Unless specifically indicated, all animals were maintained on a FA-deficient diet (TestDiet, St. Louis, Mo.) upon arrival and throughout the study. To establish subcutaneous xenografts, MDA-MB-231 and HOS-FRα were implanted in the right flank region at 2.5×10^6 and 1×10^6 cells per animal, respectively. For intravenous xenografts, THP1-FRb cells were inoculated at 5×10^6 cells per animal. Subcutaneous tumors were measured 2-3 times per week with a caliper and calculated using the ellipsoidal formula […]. […] All animal doses (CAR-T cells, EC17, sodium fluorescein) were given intravenously.
Depending on the CAR-T cell dose and how EC17 is administered, tumor-bearing mice receiving FITC-specific CAR-T cells can experience severe CRS and varying degrees of body weight loss. […] On the days immediately following each EC17 dose, animals were scored and rescue agents such as sodium fluorescein, folic acid and leucovorin were used to mitigate CRS toxicity. […]

MDA-MB-231 tumors = assay: CAR-T therapy with EC17 fixed dose or dose de-escalation in mice bearing MDA-MB-231 tumors; type: in vivo
From the text: The effect of EC17 dose de-escalation was investigated on the anti-tumor activity and the toxicity (body weight changes) of CAR-T therapy. Two different anti-fluorescein scFv were used for the CAR constructions (FIG. 1). The first construct of CAR contains the following domains: antiFL(FITC-E2)scFv-IgG4 hinge (CH2 (L235D, N297Q)-CH3)-CD28 TM-4-1BB-CD3z-T2A-EGFRt. The second construct of CAR contains the following domains: antiFL(FITC-4M5.3)scFv-IgG4 hinge (CH2 (L235D, N297Q)-CH3)-CD28 TM-4-1BB-CD3z-T2A-EGFRt. The nucleic acid sequence and amino acid sequence of the CAR of each construct are shown as SEQ ID NOS:1 to 4. Human T cells were isolated, activated and transduced with a lentiviral vector carrying the appropriate CAR gene. CD4+ T cells with the CAR-modification and CD8+ T cells with the CAR-modification were isolated and cultured separately in vitro for about 7 days. CD4+ CAR-T cells and CD8+ CAR-T cells were mixed at a 1:1 ratio before i.v. administration for animal studies.
The second construct 4M5.3-CAR (antiFL(FITC-4M5.3) scFv-IgG4 hinge (CH2 (L235D, N297Q)-CH3)-CD28 TM-4-1BB-CD3z-T2A-EGFRt) was also evaluated. Mice bearing MDA-MB-231 tumors (150-250 mm^3) were used for in vivo studies to evaluate 4M5.3-CAR-T cells. […]

Structure (SMILES): O=C([O-])c1ccccc1-c1c2ccc(=O)cc-2oc2cc([O-])ccc12.[Na+].[Na+] [sodium fluorescein]
- CAR-T cell derived human cytokines after rescue (HOS-FRα tumor): acted very quickly to reduce CAR-T cell derived human cytokines
- antitumor activity after NaFL rescue (MDA-MB-231 tumors; E2-CAR-T 10 and 20 million cells, EC17 500 nmol/kg SIW, NaFL 6 umol/kg): antitumor activity was maintained
- antitumor activity after NaFL rescue (MDA-MB-231 tumors; E2-CAR-T 30 million cells with EC17 dose de-escalation): antitumor activity is maintained
